Reference: ChEMBL document CHEMBL1201862, “PubChem BioAssay data set” (2004)
The source made the active and inactive calls.

Columns and labels:
[1] = M. tuberculosis H37Rv growth inhibitors, H37Rv strain (AID 1626); type: functional
[2] = inhibitors of Bluetongue virus cytopathic effect, confirmation, arbovirus, BSR cells (AID 1250); type: functional;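 note: protection from viral cytopathic effect measured as cell viability by ATP luminescence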
Estrogen receptor beta = Estrogen receptor beta (Homo sapiens, UniProt Q92731); test: ERβ–SRC-3 coactivator interaction inhibitors, confirmation, orthogonal assay, biochemical, ELISA, streptavidin-HRP readout (AID 1060)
Estrogen receptor = target: T1, Estrogen receptor (Homo sapiens, UniProt P03372); test: ERα–SRC-3 coactivator interaction inhibitors, confirmation, orthogonal assay, biochemical, ELISA, streptavidin-HRP readout (AID 1079)
T1 sequence (P03372 whole entry): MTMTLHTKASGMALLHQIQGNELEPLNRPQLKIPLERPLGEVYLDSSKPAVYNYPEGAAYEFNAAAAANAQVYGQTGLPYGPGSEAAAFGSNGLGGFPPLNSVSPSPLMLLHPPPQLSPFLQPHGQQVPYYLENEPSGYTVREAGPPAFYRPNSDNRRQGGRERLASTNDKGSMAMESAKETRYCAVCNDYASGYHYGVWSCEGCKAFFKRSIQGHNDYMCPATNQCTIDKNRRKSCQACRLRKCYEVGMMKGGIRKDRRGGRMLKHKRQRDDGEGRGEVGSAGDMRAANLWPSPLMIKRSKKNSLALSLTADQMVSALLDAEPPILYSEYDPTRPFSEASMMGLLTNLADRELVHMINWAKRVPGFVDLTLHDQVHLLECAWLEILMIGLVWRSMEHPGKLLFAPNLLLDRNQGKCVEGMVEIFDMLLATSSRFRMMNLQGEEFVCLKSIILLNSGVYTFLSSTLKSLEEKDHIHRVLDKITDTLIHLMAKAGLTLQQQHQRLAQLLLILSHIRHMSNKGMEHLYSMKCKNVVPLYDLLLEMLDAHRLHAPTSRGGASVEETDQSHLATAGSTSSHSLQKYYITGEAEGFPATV

[3] = Luminescence-based counterscreen assay for KLF5 inhibitors: dose response cell-based high throughput screening assay to identify cytotoxic compounds using the IEC-6 intestinal epithelial cell line. [Related pubchem assays: 1700 (Primary screen.), 1834 (Confirmation screen.), 1858 (Summary AID.), 1905 (Counterscreen.)]; type: functional
Bcl-2-like protein 10 = Bcl-2-like protein 10 (Homo sapiens, UniProt Q9HD36); test: Biochemical TR3 FP assay of Bcl-B inhibitor potency, EC50 (AID 1243); type: functional
Vasopressin V1a receptor = Vasopressin V1a receptor (Homo sapiens, UniProt P37288); test: Fluorescence-based cell-based high throughput dose response screening assay for agonists of the vasopressin 1 receptor (V1R).; type: functional
Oxytocin receptor = Oxytocin receptor (Homo sapiens, UniProt P30559); test: Counterscreen for vasopressin 1 receptor (V1R) agonists: Fluorescence-based cell-based high throughput dose response assay for agonists of the Oxytocin Receptor (OXTR). [Related pubchem assays: 2435 (Primary screen (OXTR agonists in singlicate)), 434964 (Confirmation screen (V1R agonists in triplicate)), 434969 (Counterscreen (OXTR agonists in …; type: functional
[4] = target: Induced myeloid leukemia cell differentiation protein Mcl-1 (Homo sapiens, UniProt Q07820); test: MCL1-BIM BH3 interaction inhibitors, dose response, biochemical, fluorescence polarization, BIM-BH3 peptide, 1536-well (AID 2217)
Bcl-2-like protein 1 = Bcl-2-like protein 1 (Homo sapiens, UniProt Q07817); test: BCL-XL inhibitors, dose response, selectivity assay for MCL1 inhibitor project, biochemical, fluorescence polarization, 1536-well (AID 2218)
Ion channel NompC = Ion channel NompC (Danio rerio, UniProt Q7T1G6); test: Fluorescence counterscreen assay for TRPML3 agonists: dose response cell-based high-throughput screening assay to identify agonists of the transient receptor potential channel N1 (TRPN1). [Related pubchem assays: 1526, 1424, 1448 ]; type: functional
Mucolipin-3 = Mucolipin-3 (Homo sapiens, UniProt Q8TDD5); test: Dose response cell-based high-throughput screening assay for agonists of the transient receptor potential channel ML3 (TRPML3). [Related pubchem assays: 1526, 1424, 1448 ]; type: functional
Aminopeptidase N = target: T2, Aminopeptidase N (Plasmodium falciparum FcB1/Columbia, UniProt O96935); test: P. falciparum M1AAP inhibitors, biochemical, fluorogenic H-Leu-NHMec substrate, 1536-well (AID 1445); design: species or system Plasmodium falciparum 3D7, 3D7
T2 sequence (O96935 whole entry): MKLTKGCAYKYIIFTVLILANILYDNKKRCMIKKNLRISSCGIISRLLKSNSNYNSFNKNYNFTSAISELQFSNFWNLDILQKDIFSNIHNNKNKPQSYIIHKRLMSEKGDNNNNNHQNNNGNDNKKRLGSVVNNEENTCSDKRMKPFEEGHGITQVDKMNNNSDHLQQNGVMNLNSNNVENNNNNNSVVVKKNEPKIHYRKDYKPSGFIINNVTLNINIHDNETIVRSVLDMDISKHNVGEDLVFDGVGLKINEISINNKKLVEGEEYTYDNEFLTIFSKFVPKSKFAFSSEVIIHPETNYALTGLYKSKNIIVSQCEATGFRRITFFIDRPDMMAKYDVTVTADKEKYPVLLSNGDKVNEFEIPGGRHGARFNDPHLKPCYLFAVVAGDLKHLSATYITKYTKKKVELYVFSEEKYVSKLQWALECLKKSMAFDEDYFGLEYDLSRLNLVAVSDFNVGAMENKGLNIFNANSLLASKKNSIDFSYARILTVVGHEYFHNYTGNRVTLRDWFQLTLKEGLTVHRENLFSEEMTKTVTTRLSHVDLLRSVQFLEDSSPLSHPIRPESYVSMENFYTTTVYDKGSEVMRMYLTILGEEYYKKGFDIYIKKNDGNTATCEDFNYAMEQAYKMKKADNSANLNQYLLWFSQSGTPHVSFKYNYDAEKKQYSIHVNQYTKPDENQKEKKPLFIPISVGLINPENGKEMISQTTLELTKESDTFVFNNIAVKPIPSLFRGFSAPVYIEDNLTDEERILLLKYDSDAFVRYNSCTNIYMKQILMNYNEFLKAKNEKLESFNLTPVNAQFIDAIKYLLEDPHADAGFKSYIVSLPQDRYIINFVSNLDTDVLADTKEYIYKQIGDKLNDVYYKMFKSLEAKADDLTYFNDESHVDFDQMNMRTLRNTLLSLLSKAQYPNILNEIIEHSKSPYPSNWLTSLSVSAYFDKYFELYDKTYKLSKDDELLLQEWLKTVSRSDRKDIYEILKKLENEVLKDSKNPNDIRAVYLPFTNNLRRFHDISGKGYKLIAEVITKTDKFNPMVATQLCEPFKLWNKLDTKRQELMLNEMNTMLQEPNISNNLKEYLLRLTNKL

Procathepsin L = Procathepsin L (Homo sapiens, UniProt P07711); test: cathepsin L inhibitors, dose response, counter-screen for M1/M17 aminopeptidase inhibitor project, biochemical, QFRET, 1536-well (AID 2214)
Aspartyl aminopeptidase = Aspartyl aminopeptidase (Plasmodium falciparum 3D7, UniProt Q8I2J3); test: Counterscreen for inhibitors of M1 and M17 aminopeptidases: QFRET-based biochemical high throughput dose response assay for inhibitors of the Plasmodium falciparum M18 Aspartyl Aminopeptidase (PFM18AAP). [Related PubChem assays: 1619 (Screening assay (M17LAP inhibitors).), 1445 (Screening assay (M1AAP inhibitors).)]
[5] = target: T3, Zinc finger protein mex-5 (Caenorhabditis elegans, UniProt Q9XUB2); test: MEX-5/TCR-2 RNA interaction inhibitors, dose response, biochemical, C. elegans, fluorescence polarization (AID 1960)
T3 sequence (Q9XUB2 whole entry): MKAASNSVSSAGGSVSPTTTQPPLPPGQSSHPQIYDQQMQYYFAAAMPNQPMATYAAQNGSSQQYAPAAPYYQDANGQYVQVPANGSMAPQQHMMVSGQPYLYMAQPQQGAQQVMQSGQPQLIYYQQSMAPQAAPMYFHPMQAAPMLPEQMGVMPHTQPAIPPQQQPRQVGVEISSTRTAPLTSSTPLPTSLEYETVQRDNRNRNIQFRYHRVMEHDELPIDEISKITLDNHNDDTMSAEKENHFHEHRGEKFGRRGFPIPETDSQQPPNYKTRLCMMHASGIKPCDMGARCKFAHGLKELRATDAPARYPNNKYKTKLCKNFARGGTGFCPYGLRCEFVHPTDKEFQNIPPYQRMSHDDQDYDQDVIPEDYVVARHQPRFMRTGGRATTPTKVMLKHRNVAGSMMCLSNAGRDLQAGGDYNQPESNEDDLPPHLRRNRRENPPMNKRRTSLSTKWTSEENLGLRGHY

[6] = NIH-3T3 fibroblast cytotoxicity, dose response, cytotoxicity control, cell-based, fluorescence, Alamar Blue, secondary assay (AID 2327); type: functional;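 note: NIH-3T3 mouse fibroblasts cultured with fluconazole at 8 µg/mL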
[7] = growth suppression of beta-catenin-knockout colon cells, dose response, cell-based, HCT116, human colon tumor (AID 1045); type: functional;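 note: HCT116 colon tumor cells with beta catenin knocked out; cells exposed to compound for 60 hours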
[8] = C. albicans growth with fluconazole, confirmation, fluorescence, retest (AID 2467); type: functional, cell-based
[9] = target: Protein-tyrosine kinase 2-beta (Homo sapiens, UniProt Q14289);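 note: potency of inhibitors of PYK2 kinase phosphorylation of poly-GT substrate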
[10] = target: 72 kDa type IV collagenase (Homo sapiens, UniProt P08253); test: Dose Response validation of uHTS RPN11 inhibitor hits using a MMP-2 Fluorescence assay.; type: functional
[11] = target: 26S proteasome non-ATPase regulatory subunit 14 (Homo sapiens, UniProt O00487); test: inhibition of proteasome subunit RPN11 – biochemical, fluorescence polarization, uHTS hits, confirmation (AID 602368); type: functional
Prothrombin = Prothrombin (Bos taurus, UniProt P00735); test: thrombin inhibition, dose response, biochemical, fluorescence polarization, uHTS hits (AID 602369); type: functional
[12] = growth suppression of PTEN-null colon cells, dose response, cell-based, HCT116 PTEN knockout (AID 1047); type: functional;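 note: HCT116 colon tumor cells with PTEN knocked out; cells exposed to compound for 60 hours before readout; potency for loss of cell viability measured by luminescence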
[13] = target: ATP-dependent molecular chaperone HSP82 (Candida albicans (strain WO-1) (Yeast), UniProt C4YTQ8); test: loss of DOC-induced GRE-beta-galactosidase reporter signal, dose response, Hsp90 inhibitor project, S. cerevisiae, luminescence (AID 2400); type: functional, cell-based;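 note: beta-galactosidase luminescence from glucocorticoid response element reporter as proxy for Hsp90 function; inhibitor potency where signal loss means Hsp90 inhibition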
[14] = target: T4, Serine/threonine-protein phosphatase (Candida dubliniensis (strain CD36 / CBS 7987 / NCPF 3949 / NRRLY-17841) (Yeast), UniProt B9W6M3); test: calcineurin pathway inhibitors in yeast reporter, dose response, S. cerevisiae, CDRE-lacZ, luminescence, secondary (AID 2388); type: functional, cell-based;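 note: yeast reporter cells carrying a calcineurin-responsive lacZ construct stimulated with calcium chloride; luminescent beta-galactosidase reporter signal in whole cells rather than isolated phosphatase activity; potency for inhibition where a drop in reporter signal means calcineurin blockade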
T4 sequence (B9W6M3 whole entry): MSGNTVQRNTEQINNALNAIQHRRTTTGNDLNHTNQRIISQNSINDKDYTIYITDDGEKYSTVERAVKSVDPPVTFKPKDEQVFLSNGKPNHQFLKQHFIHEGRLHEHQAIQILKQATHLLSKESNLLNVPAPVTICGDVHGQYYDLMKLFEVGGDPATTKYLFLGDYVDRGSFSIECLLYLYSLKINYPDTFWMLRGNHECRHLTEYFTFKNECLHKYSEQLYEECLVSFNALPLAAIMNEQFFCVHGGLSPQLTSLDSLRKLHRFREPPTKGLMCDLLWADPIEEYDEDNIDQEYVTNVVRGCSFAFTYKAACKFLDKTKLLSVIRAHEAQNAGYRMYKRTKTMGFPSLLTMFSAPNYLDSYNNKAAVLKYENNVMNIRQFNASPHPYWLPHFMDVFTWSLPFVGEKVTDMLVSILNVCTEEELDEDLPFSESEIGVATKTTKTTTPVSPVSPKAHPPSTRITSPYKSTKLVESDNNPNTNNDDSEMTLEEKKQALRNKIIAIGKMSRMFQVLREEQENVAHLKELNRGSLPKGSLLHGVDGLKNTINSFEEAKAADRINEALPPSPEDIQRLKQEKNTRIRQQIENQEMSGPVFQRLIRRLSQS

[15] = target: T5, RNA-binding protein pos-1 (Caenorhabditis elegans, UniProt G5EF15); test: inhibitors of POS-1/mex-3 RNA binding, dose response, biochemical, fluorescence polarization (AID 1964);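 note: purified POS-1 fused to maltose binding protein made in E. coli; potency of compounds blocking POS-1 binding to fluorescent RNA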
T5 sequence (G5EF15 whole entry): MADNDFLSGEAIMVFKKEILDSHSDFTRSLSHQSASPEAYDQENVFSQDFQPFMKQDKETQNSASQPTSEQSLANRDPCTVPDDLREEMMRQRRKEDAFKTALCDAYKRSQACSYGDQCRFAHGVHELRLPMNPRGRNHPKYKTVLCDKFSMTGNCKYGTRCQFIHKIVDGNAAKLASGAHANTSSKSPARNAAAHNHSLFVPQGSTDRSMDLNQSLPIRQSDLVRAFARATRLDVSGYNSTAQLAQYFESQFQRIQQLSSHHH

[16] = target: Inward rectifier potassium channel 2 (Mus musculus, UniProt P35561); test: Manual electrophysiological patch clamp assay for SAR compounds that inhibit/block inward-rectifying potassium ion channel Kir2.1. [Related pubchem assays: 1843 (Summary assay for Kir2.1 inhibitor assays.), 1672 (Primary HTS of 305616 compounds where 2592 were identified as active.)]; type: functional

Vasopressin V1a receptor, sequence (P37288 whole entry): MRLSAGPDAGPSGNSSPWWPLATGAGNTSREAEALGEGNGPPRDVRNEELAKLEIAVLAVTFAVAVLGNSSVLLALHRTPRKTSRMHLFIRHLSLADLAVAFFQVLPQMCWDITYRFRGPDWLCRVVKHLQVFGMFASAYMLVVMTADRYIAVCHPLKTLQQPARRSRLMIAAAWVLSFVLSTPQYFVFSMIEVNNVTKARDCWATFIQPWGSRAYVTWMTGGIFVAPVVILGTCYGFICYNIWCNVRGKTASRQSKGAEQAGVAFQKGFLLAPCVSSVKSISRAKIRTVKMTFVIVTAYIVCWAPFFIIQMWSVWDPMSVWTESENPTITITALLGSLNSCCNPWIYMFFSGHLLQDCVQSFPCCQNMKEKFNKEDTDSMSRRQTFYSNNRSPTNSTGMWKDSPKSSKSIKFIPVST
72 kDa type IV collagenase, sequence (P08253 whole entry): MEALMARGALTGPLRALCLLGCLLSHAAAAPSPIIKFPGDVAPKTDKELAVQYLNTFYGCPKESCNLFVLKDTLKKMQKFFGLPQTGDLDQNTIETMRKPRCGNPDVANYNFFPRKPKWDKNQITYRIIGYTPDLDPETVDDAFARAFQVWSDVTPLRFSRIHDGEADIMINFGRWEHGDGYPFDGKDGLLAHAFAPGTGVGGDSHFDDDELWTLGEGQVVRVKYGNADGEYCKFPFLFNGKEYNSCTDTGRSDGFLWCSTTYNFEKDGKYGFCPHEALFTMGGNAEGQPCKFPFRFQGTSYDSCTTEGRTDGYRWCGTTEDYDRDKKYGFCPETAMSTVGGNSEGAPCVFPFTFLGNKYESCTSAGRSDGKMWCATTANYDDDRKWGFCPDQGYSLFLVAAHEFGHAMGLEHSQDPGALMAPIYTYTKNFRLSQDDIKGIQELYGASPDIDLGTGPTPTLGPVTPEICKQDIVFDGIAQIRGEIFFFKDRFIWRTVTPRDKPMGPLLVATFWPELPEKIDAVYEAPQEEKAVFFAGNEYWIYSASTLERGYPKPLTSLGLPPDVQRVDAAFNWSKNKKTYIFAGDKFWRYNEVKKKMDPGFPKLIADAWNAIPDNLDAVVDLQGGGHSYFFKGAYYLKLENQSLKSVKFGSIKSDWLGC
Induced myeloid leukemia cell differentiation protein Mcl-1, sequence (Q07820 whole entry): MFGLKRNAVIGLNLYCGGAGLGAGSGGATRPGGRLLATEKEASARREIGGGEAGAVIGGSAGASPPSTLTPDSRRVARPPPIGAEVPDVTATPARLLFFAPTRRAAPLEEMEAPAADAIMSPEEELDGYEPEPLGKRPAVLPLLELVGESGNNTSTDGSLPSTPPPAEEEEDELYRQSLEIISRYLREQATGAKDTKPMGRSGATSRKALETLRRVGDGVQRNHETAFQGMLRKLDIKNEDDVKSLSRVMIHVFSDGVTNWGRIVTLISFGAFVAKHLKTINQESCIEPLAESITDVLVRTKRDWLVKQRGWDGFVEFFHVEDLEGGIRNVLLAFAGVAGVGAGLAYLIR
Procathepsin L, sequence (P07711 whole entry): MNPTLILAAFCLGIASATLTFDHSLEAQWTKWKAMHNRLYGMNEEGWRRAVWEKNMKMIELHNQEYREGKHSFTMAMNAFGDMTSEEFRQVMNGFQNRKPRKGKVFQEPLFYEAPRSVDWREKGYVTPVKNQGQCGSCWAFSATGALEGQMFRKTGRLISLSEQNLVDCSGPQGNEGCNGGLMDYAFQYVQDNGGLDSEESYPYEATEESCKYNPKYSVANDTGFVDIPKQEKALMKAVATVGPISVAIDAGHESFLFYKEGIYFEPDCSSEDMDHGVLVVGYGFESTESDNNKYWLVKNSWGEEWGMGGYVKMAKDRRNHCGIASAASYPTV
Mucolipin-3, sequence (Q8TDD5 whole entry): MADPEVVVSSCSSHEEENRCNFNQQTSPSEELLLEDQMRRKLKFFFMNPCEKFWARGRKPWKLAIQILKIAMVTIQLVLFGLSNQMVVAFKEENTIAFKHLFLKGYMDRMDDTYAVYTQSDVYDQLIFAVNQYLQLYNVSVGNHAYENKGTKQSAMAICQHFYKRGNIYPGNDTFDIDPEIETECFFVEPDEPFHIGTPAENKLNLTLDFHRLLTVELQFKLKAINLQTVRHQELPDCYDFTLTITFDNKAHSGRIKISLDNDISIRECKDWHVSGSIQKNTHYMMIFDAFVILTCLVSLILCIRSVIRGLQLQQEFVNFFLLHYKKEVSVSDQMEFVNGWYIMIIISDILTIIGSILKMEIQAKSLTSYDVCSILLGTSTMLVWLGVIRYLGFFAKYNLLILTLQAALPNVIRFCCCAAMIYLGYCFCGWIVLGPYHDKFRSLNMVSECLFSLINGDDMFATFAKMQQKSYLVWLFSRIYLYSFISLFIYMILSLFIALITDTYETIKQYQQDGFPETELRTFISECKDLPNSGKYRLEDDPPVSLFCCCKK
Ion channel NompC, sequence (Q7T1G6 whole entry): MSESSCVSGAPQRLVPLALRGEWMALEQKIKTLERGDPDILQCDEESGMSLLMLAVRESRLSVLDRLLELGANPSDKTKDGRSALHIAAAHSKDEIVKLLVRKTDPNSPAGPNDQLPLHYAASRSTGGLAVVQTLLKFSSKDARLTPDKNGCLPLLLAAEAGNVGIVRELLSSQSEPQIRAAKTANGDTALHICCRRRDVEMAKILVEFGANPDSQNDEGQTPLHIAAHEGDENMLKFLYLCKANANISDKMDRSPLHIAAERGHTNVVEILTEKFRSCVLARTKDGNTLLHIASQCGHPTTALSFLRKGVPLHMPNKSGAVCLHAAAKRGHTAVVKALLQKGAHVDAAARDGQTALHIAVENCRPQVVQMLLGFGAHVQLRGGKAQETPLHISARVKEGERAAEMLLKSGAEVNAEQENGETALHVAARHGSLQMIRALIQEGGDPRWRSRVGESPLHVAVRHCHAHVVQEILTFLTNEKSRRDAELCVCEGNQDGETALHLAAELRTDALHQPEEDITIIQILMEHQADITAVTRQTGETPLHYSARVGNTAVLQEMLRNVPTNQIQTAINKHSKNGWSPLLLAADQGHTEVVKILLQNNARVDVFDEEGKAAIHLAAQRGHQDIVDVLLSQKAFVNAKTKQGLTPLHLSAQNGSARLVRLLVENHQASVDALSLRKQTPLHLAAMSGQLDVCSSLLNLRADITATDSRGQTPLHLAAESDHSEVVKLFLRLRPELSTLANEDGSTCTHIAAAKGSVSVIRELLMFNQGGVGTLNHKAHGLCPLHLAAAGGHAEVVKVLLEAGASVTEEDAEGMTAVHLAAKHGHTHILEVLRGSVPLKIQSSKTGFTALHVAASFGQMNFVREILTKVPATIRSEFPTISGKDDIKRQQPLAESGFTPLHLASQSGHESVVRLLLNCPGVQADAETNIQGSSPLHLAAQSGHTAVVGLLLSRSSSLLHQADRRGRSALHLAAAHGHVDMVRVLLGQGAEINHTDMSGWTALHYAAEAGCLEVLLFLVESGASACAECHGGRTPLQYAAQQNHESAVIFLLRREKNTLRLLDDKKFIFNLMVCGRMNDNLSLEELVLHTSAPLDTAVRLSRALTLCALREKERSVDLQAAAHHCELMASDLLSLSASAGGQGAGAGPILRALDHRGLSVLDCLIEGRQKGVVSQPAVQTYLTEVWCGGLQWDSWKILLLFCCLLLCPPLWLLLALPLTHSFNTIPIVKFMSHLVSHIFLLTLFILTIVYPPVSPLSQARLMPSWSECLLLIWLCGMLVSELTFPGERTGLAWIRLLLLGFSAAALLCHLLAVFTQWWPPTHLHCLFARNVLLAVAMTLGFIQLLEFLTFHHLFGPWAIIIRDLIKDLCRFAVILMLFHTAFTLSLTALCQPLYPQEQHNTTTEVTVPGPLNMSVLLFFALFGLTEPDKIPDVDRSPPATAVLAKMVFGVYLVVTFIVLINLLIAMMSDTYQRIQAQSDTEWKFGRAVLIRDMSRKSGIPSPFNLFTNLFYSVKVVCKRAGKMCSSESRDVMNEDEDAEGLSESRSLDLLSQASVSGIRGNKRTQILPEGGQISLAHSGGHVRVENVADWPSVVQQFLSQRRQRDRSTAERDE
Protein-tyrosine kinase 2-beta, sequence (Q14289 whole entry): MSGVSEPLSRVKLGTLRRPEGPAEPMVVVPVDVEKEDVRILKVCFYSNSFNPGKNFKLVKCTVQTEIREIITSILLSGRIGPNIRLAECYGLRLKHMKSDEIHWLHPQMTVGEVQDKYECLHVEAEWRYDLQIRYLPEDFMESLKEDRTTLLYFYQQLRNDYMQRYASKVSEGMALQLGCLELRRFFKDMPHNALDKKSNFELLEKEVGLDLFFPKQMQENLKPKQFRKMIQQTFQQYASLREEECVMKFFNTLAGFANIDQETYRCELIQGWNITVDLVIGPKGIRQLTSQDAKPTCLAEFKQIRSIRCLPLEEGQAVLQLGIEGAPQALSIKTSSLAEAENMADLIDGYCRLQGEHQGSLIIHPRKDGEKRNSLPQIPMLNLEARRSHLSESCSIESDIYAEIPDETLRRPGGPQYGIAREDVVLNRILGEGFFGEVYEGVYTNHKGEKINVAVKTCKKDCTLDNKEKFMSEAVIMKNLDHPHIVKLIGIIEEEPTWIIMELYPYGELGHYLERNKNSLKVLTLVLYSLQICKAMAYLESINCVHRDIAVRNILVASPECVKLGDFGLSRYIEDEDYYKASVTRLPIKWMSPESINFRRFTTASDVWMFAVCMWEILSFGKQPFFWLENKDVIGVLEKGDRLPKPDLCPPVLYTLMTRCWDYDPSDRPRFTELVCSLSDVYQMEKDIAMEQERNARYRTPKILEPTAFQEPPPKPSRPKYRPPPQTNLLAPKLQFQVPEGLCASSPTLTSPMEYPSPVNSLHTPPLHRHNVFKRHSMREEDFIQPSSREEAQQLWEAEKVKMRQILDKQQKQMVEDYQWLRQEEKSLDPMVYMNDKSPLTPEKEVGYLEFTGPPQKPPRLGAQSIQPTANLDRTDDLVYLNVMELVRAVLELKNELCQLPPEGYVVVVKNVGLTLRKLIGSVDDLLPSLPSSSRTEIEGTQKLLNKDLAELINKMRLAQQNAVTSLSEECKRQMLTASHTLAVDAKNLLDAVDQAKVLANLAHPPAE

CCOC(=O)c1ccc(NC(=O)c2nnc(O)c3ccccc23)cc1
IC50 [1]: > 100 µM (active)

CCNC(=O)NC(=O)C(C)Sc1nc2cc(C(=O)OC)ccc2c(=O)n1-c1ccccc1 (stereo not drawn)
IC50 [2]: 28.9 µM (active)

N#Cc1ccccc1N1CCN(C(=O)CCCCCn2c(=S)[nH]c3ccccc3c2=O)CC1
IC50 (Estrogen receptor beta): 0.957 µM (not active)
IC50 (Estrogen receptor): 0.09 µM (not active)

O=C(N/N=C/c1cccc(Oc2ccccc2)c1)c1ccccc1F
IC50 [3]: 18.7 µM (not active)

Cc1ccc(C)n1-c1cc(C(=O)O)cc(C(=O)O)c1
EC50 (Bcl-2-like protein 10): 0.54 µM (active)

CC(NC(=O)Nc1ccc(Cl)c(Cl)c1)C(c1ccccc1)N1CCOCC1 (stereo not drawn)
EC50 (Vasopressin V1a receptor): 6.23 µM (active)
EC50 (Oxytocin receptor): > 29.9 µM (not active)

CCOC(=O)C[C@H]1c2ccc(C(F)(F)F)cc2S(=O)(=O)N1c1cccc(OC)c1
IC50 [4]: > 109 µM (not active)
IC50 (Bcl-2-like protein 1): > 109 µM (not active)

CCC(C(=O)Nc1cc(C)nn1-c1nc(C)cc(C)n1)c1ccccc1 (stereo not drawn)
EC50 (Ion channel NompC): > 29.9 µM (not active)
EC50 (Mucolipin-3): > 29.9 µM (not active)

O=C(NCCC1=CCCCC1)C1CCN(S(=O)(=O)c2ccc(Br)s2)CC1
IC50 (Aminopeptidase N): 13.2 µM (active)
IC50 (Procathepsin L): > 59.6 µM (not active)
IC50 (Aspartyl aminopeptidase): > 73.5 µM (not active)

COC(=O)c1ccc(COc2ccc(/C=C(\C#N)c3nc4ccccc4[nH]3)cc2OC)o1
EC50 [5]: > 300 µM (not active)
EC50 [6]: > 160 µM (inconclusive)
EC50 [7]: 88.4 µM (active)
EC50 [8]: 3.83 µM (active)
IC50 [9]: > 69.5 µM (not active)
IC50 [10]: > 100 µM (inactive)
IC50 [11]: 4.93 µM (active)
IC50 (Prothrombin): 11.4 µM (active)
EC50 [12]: 79.7 µM (active)
EC50 [13]: > 160 µM (inactive)
EC50 [14]: > 180 µM (inactive)
EC50 [15]: > 300 µM (not active)

COc1ccc(CNCc2ccc(C(C)(C)C)cc2)cc1
IC50 [16]: 1.27 µM (active)
